Experimental findings from patent US12415830B2, “Steroid compound, and use thereof and preparation method therefor” (Chengdu Kanghong Pharmaceutical Co Ltd, priority 2019, dated 2025) are described below.

The target of assay [1] is T1, GABAA1 (α1β2γ2) receptor (Homo sapiens, UniProt P14867+P47870).
T1 construct: expressed in transfected cells
The experiment in a line: Patch-clamp electrophysiology on recombinant GABAA1 receptor in HEK293 cells, with 3 μM GABA. The settings on record: for Emax at 0.1 µM: 0.1 μM compound together with 3 μmol GABA; for Emax at 0.1 µM / Emax at 1 µM: read-out: potency: ratio of the peak current on the GABAA1 receptor to the peak current in 100 μmol GABA; for Emax at 1 µM: 1 μM compound together with 3 μmol GABA. Format: cell-based. The procedure:
(§1) The present invention applies the two subunits of the recombinant GABAA receptor: α1β2γ2 and α4β3δ to evaluate the potency of the exemplary compounds in vitro by patch-clamp electrophysiology.
(§2) Extracellular fluid: 140 mM NaCl, 5 mM CsCl, 2 mM CaCl2·2H2O, 1 mM MgCl2·6H2O, 5 mM HEPES, 10 mM D-Glucose, pH=7.4 (NaOH).
(§3) Intracellular fluid: 130 mM CsCl, 0.1 mM CaCl2·H2O, 2 mM MgCl2·6H2O, 1.1 mM EGTA, 5 mM Na2-ATP, 10 mM HEPES, pH=7.2 (CsOH).
The HEK293 cells line stably expressing GABAA (α1β2γ2) receptors was cultured in Dulbecco's Modified Eagle Medium (DMEM) supplemented with 10% fetal bovine serum, 800 μg/mL G418, 200 μg/mL Hygromycin B and 100 μg/mL Zeocin. Cells were grown in a humidified incubator at 37° C. with 5% carbon dioxide.
Before manual patch clamp test, the cells were detached using 0.25%-Trypsin-EDTA solution. Then 8×10^3 cells were plated onto coverslips, and cultured in a 24-well plate (final medium volume: 500 μL) and tested after 18 hours by patch clamp.
(§4) Glass pipette (BF 150-86-10, Sutter Instruments) was pulled using a micropipette puller (P97, Sutter Instruments). The glass pipette was manipulated using a micro-manipulator (MP285, Sutter Instruments) under the microscope (IX71, Olympus). After touching the cell, a slight suction was applied to achieve high seal resistance (GQ). Fast capacitance (in pF) compensation was made after achieving high seal, and the membrane was broken. Cell capacitance (in pF) compensation was made from whole-cell capacitance compensation after the whole cell mode was achieved. No leak subtraction was made.
(§5) The test and control solutions flowed into a recording chamber mounted on the stage of an inverted microscope via a gravity-fed solution delivery system. During the experiment, solutions were withdrawn from the recording chamber by vacuum aspiration. Each concentration was tested at multiple times. All tests were performed at room temperature.
Whole cell model recorded GABAA1 receptors current experimental protocol was indicated as follows: When sealing, cell was at a holding potential of −70 mV, with gap-free mode to record the peak current. The cell would be applied with 3 μM GABA to active current. After the test articles application for 30 s, each concentration of test articles was applied with 3 μM GABA followed by 2 minutes washout using extracellular solution. Finally, 100 μM GABA was used as a positive control. The data were collected by EPC-10 amplifier and stored in PatchMaster (HEKA) software.
The following criteria are used to determine whether the data is acceptable: • (1) Electrode resistance <5MΩ • (2) Seal resistance >1GΩ • (3) The start of access resistance <15 MΩ • (4) The end of access resistance <15 MΩ • (5) No obvious spontaneous current decay. • (6) No obvious current leakage when the membrane potential is-70 mv. 56.6 Data Analysis
In the detection of GABAA1, the currents of 3 μM GABA and different concentrations of test compounds were respectively normalized to the current of 100 μM GABA
[formula] and then the activation rate corresponding to each concentration was calculated.
[formula] and then the activation rate corresponding to each concentration was calculated. Means, Standard Deviation and Standard Error were calculated for each test group. EC50 value was calculated using nonlinear regression: Y=Bottom+(Top−Bottom)/(1+10^((Log EC50−X)×HillSlope))
To fit data to the concentration-response, EC50 was the concentration giving a half-maximum effect and Hillslope was the Hill coefficient. Curve-fitting and EC50 calculations were performed using Graphpad5.0 software.
Emax is defined as the ratio of the peak current generated on the GABAA1 receptor to the peak current generated only in 100 μmol of GABA and the ratio is multiplied by 100%. The peak current generated on the GABAA1 receptor is that the exemplary compounds act on the GABAA1 receptor together with 3 μmol GABA.
For orientation: Patch clamp records ionic current or voltage across a cell membrane.

The target in assay [2] is T2, GABAA4 (α4β3δ) receptor (Homo sapiens, UniProt P28472+P48169).
T2 construct: expressed in transfected cells; host or cells: HEK293 (transient transfection, plasmids 1:1:1)
The experiment in a line: Patch-clamp electrophysiology, compound alone or with 10 nM GABA (Table 3). Format: cell-based. The settings on record: for Emax: relative to peak current in GABA only. How it is done: as §1, §2, §3
HEK293 cell line was cultured in DMEM containing 10% fetal bovine serum and 5% carbon dioxide at 37° C.
Cell passage: The old medium was removed, and the cells were washed once with PBS. Then 1 mL 0.25%-Trypsin-EDTA solution was added to digest cells. The culture dish was incubated at 37° C. in pre-warmed incubator for 0.5 minutes. As soon as cells were detached, about 5 mL 37° C. pre-warmed complete medium was added. Cell aggregates were dissociated by gentle pipetting. The cell suspension was transferred into a sterile centrifuge tube and then the cell suspension was be spun at approximately 1000 rpm for 5 minutes. The cells were amplified or maintained by seeding 2.5×10^5 cells in a 6 cm dish (final medium volume: 5 mL). For transfection, 8×10^3 cells were plated onto coverslips, and cultured in a 24-well plate (final medium volume: […]).
Transfection: Second day, the transfection of GABAA4 (α4, β3, δ plasmid ratio 1:1:1) was performed. The X-tremeGENE HP DAN Transfection Reagents kit were used. The ratio of the plasmid and transfection reagent was 1 μg: 2 μL. The amount of plasmid in the 24-well plate was 0.5 μg per well, and the transfection reagent was 1 μL. The following specific steps were taken for preparing the 12 wells: The 600 μL Opti-MEM was added to a sterile centrifuge tube along with 6 μg of plasmid and was allowed to mix well; Then, the 12 μL of transfection reagent was added, mixed well following 15 min incubation at room temperature. The transfection complex was then inoculated into the cell, 50 μL per well, and the transfection complex was lightly stirred and mixed.
This mixture was changed on the third day, and the patch-clamp was performed on the fourth day.
as §4, §5
Whole cell model recorded GABAA4 receptors current experimental protocol was indicated as follows: When sealing, cell was at a holding potential of −70 mV, with gap-free mode to record the peak current. The cell would be applied with 10 nM GABA to active current. After the test articles application for 30 s, each concentration of test articles was applied with 10 nM GABA followed by 2 minutes washout using extracellular solution. Finally, 10 μM GABA was used as a positive control. The data were collected by EPC-10 amplifier and stored in PatchMaster (HEKA) software.
The following criteria are used to determine whether the data is acceptable: • (1) Electrode resistance <5MΩ • (2) Seal resistance >1GΩ • (3) The start of access resistance <15 MΩ • (4) The end of access resistance <15 MΩ • (5) No obvious spontaneous current decay. • (6) No obvious current leakage when the membrane potential is-70 mv. […]

Setting [3] is: with 10 nM GABA, read-out: EC50 (with 10 nM GABA).
Where [4] appears, read: with 10 nM GABA, read-out: Emax (with 10 nM GABA).
The mark [5] stands for this setting: without GABA, read-out: EC50 (without GABA).
Setting [6] is: without GABA, read-out: Emax (without GABA).

Like-named read-outs stand apart in the source and are kept apart here.

T1 sequence (P14867 28-456): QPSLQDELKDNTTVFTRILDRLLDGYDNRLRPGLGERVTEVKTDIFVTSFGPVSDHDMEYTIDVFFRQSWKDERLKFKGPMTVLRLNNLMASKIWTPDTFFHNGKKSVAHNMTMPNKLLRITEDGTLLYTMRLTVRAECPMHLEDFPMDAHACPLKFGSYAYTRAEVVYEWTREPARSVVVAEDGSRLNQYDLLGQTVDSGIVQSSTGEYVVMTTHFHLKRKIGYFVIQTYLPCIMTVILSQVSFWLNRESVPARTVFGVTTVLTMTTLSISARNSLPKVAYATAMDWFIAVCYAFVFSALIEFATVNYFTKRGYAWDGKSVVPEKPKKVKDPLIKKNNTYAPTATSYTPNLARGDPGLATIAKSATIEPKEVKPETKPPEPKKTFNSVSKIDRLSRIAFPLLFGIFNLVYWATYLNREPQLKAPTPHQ
T1 sequence (P47870 26-512): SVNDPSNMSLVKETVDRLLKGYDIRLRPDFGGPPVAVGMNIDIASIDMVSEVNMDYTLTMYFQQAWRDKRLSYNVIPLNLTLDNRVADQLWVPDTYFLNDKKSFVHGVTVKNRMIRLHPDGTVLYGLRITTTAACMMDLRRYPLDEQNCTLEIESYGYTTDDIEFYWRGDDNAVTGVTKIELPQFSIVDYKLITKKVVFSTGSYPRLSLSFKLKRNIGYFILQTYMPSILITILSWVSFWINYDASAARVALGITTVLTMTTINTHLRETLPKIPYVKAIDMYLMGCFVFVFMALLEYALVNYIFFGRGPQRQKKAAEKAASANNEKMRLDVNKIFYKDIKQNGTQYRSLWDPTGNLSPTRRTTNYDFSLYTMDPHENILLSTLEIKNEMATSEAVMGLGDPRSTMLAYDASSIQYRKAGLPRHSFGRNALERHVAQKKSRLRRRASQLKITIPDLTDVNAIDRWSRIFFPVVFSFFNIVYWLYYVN
T1 sequence (P18507 40-475 partner): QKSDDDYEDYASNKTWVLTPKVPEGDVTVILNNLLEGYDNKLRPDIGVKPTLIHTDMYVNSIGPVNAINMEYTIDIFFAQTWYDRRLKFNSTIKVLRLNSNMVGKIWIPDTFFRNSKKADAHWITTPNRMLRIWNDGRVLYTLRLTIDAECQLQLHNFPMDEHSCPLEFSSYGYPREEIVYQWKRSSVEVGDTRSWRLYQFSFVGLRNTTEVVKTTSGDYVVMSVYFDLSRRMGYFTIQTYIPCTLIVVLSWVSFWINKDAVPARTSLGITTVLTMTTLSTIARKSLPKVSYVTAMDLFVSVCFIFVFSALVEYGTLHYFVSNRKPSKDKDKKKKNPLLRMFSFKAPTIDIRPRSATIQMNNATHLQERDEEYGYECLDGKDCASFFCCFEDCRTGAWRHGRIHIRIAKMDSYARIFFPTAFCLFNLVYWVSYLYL
T2 sequence (P48169 36-554): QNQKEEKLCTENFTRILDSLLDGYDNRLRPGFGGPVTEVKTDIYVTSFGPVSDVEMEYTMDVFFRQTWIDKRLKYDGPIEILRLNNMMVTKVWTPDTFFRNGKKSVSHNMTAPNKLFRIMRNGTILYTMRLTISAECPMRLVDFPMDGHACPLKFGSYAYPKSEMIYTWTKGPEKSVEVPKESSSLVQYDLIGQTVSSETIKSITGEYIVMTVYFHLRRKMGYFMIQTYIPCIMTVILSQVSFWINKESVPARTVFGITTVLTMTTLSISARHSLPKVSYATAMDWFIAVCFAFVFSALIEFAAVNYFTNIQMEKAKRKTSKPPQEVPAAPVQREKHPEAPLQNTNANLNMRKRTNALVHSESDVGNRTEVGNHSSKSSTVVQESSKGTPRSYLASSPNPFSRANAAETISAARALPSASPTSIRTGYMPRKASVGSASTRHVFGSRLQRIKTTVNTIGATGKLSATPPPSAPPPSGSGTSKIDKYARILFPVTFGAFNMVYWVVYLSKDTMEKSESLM
T2 sequence (P28472 26-473): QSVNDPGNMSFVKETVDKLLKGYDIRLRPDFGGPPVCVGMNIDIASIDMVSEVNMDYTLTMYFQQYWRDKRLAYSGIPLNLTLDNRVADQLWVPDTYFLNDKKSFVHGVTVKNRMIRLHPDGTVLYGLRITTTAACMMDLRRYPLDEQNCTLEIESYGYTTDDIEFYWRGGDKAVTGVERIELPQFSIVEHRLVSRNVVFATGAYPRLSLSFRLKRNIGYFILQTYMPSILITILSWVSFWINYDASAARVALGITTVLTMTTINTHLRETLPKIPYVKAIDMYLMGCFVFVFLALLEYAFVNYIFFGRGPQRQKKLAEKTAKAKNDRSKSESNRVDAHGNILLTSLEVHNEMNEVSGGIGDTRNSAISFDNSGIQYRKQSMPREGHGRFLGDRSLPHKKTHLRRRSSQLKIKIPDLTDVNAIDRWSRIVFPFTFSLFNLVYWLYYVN
T2 sequence (O14764 25-452 partner): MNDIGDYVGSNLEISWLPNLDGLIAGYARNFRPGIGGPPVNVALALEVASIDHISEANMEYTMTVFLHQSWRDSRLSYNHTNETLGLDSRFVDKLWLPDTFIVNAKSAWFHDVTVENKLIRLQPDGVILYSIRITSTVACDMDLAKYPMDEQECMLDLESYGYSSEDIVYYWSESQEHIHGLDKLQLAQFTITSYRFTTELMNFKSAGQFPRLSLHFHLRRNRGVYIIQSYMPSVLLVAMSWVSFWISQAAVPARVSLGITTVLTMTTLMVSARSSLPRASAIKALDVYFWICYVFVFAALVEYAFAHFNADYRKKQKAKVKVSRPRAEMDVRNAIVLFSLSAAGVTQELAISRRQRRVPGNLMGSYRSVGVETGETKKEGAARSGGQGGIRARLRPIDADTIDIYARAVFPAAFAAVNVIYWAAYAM

As usually defined, the EC50 is the concentration giving half of the maximal effect. As to `C[C@@]1(O)CC[C@@]2(C)[C@@H](CC[C@@H]3[C@@H]2CC[C@]2(C)[C@@H](C(=O)COc4noc5ccccc45)CCC[C@@H]32)C1` [KH025], in assay [1] (HEK293), the Emax at 0.1 µM is 0 to 20%. For the same compound, the Emax at 1 µM in assay [1] (HEK293) was in the range of 60 to 80%. In addition, the Emax in assay [1] (HEK293, together with 3 μmol GABA, relative to peak current in 100 μmol GABA) was found to be 93.7%; in assay [2] (setting [4]), 92.5%; in assay [2] (setting [6]), 84.6%. Also, the EC50 in assay [1] (together with 3 μmol GABA) worked out at 620 nM; in assay [2] (setting [3]), 572 nM; in assay [2] (setting [5]), 947 nM.
For the compound `C[C@@]1(O)CC[C@@]2(C)[C@@H](CC[C@@H]3[C@@H]2CC[C@]2(C)[C@@H](C(=O)Cn4nnc(-c5ccccc5)n4)CCC[C@@H]32)C1` [KH039], the Emax at 0.1 µM in assay [1] (HEK293) fell in the range of 0 to 20%. For the same compound, in assay [1] (HEK293), the Emax at 1 µM was 60 to 80%. Further, the concentration for a half-maximal effect (EC50) in assay [2] (setting [3]) and in assay [2] (setting [5]) was > 4000 nM in each case. The Emax came to 125% in assay [2] (setting [4]) and 121% in assay [2] (setting [6]).
Turning to `CC(=O)C1CCCC2[C@@H]3CC[C@H]4C[C@H](O)CC[C@]4(C)[C@H]3CC[C@]12C` (some centres unmarked) [KH001], the Emax at 0.1 µM in assay [1] (HEK293) was 20 to 40%. Further, the Emax at 1 µM in assay [1] (HEK293) is 60 to 80%. Further, the EC50 was 132 nM in assay [2] (EC50 (with 10 nM GABA), with 10 nM GABA) and 173 nM in assay [2] (EC50 (without GABA), without GABA). Also, the Emax in assay [2] (setting [4]) amounted to 91.7%; in assay [2] (setting [6]) it was 103%.
Turning to `CC(=O)[C@H]1CCC[C@H]2[C@@H]3CC[C@H]4C[C@](C)(O)CC[C@]4(C)[C@H]3CC[C@]12C` [KH021], in assay [1] (HEK293), the Emax at 0.1 µM lay in the range of 0 to 20% and the Emax at 1 µM was 0 to 20%.
`C[C@]12CC[C@@H](O)C[C@@H]1CC[C@@H]1[C@@H]2CC[C@]2(C)[C@@H](C(=O)CN3CC4(COC4)C3)CCC[C@@H]12` [KH020]: in assay [1] (HEK293), the Emax at 0.1 µM lay within 0 to 20% and the Emax at 1 µM is 0 to 20%.
For the compound `C[C@@]1(O)CC[C@@]2(C)[C@@H](CC[C@@H]3[C@@H]2CC[C@]2(C)[C@@H](C(=O)CSc4cccs4)CCC[C@@H]32)C1` [KH041], in assay [1] (HEK293), the Emax at 0.1 µM fell in the range of 0 to 20% and the Emax at 1 µM lay in the range of 60 to 80%.
Consider `C[C@@]1(O)CC[C@@]2(C)[C@@H](CC[C@@H]3[C@@H]2CC[C@]2(C)[C@@H](C(=O)COc4nc[nH]n4)CCC[C@@H]32)C1` [KH034], for which, in assay [1] (HEK293), the Emax at 0.1 µM was 0 to 20% and the Emax at 1 µM was 0 to 20%.
As for `C[C@@]1(O)CC[C@@]2(C)[C@@H](CC[C@@H]3[C@@H]2CC[C@]2(C)[C@@H](C(=O)COc4ncnc5cnc(F)cc45)CCC[C@@H]32)C1` [KH036], in assay [1] (HEK293), the Emax at 0.1 µM fell in the range of 0 to 20% and the Emax at 1 µM fell in the range of 0 to 20%.
As to `COc1ncnc2ncn(CC(=O)[C@H]3CCC[C@H]4[C@@H]5CC[C@H]6C[C@H](O)CC[C@]6(C)[C@H]5CC[C@]34C)c12` [KH017], in assay [1] (HEK293), the Emax at 0.1 µM lay in the range of 0 to 20% and the Emax at 1 µM was 0 to 20%.
Turning to `Cn1nnnc1SCC(=O)[C@H]1CCC[C@H]2[C@@H]3CC[C@H]4C[C@](C)(O)CC[C@]4(C)[C@H]3CC[C@]12C` [KH031], in assay [1] (HEK293), the Emax at 0.1 µM was 0 to 20% and the Emax at 1 µM lay in the range of 40 to 60%.
The matching figures for `C[C@@]1(O)CC[C@H]2[C@H](CC[C@@H]3[C@@H]2CC[C@]2(C)[C@@H](C(=O)COc4nc[nH]n4)CCC[C@@H]32)C1` [KH051]: 0 to 20% and 0 to 20%.
For the compound `C[C@@]1(O)CC[C@@]2(C)[C@@H](CC[C@@H]3[C@@H]2CC[C@]2(C)[C@@H](C(=O)C(n4cc(C#N)cn4)n4cc(C#N)cn4)CCC[C@@H]32)C1` [KH027], in assay [1] (HEK293), the Emax at 0.1 µM was 0 to 20% and the Emax at 1 µM lay in the range of 0 to 20%.
